Literature values in PMC5657425 (Pediatric blood & cancer, 2016).

What was measured:
[1] = system: well-differentiated or dedifferentiated liposarcoma
[2] = system: PPTP solid tumor xenografts
Rh18 xenograft = details: single agent

CCOc1cc(C(C)(C)C)ccc1C1=N[C@@](C)(c2ccc(Cl)cc2)[C@@](C)(c2ccc(Cl)cc2)N1C(=O)N1CCN(CCCS(C)(=O)=O)CC1 [RG7112]
adverse effect in phase 1 and 2 evaluations [1]: thrombocytopenia
stable disease among 20 patients treated ([1]; phase 2, well-differentiated or dedifferentiated liposarcoma): 14
response of the osteosarcoma panel ([2]; osteosarcoma panel): no response
objective regressions in twenty six solid tumor models with wild-type TP53 ([2]; prior PPTP testing): five

COc1cc(C(=O)O)ccc1NC(=O)[C@@H]1N[C@@H](CC(C)(C)C)[C@](C#N)(c2ccc(Cl)cc2F)[C@H]1c1cccc(Cl)c1F [RG7388]
response of Rh18 (Rh18 xenograft): unresponsive
